According to patent publication US7316996B2, “Bisacyloxypropylcysteine conjugates and the use thereof” (GBF Gesellschaft fur Biotechnologische Forschung mbH, priority 2002, dated 2008):
“Also recorded” adds a separate entry of the source.

Tests used:
spleen cells = assay: β-gal-specific T cell proliferation of spleen cells from immunized mice ([3H]-thymidine uptake); type: in vivo, BALB/c (H-2d) mice; settings: spleen cells re-stimulated in vitro for 4 days with soluble β-gal; FIG. 6
Description: FIG. 6: β-gal-specific T cell proliferation responses of spleen cells from immunized mice. The cells were re-stimulated in vitro over 4 days with different concentrations of soluble β-gal. The results are depicted as ratios between the values (means of triple determinations) from stimulated and unstimulated samples (stimulation index).
The spleens were removed and taken together for analyzing the cell immune responses. The cells were propagated in RPMI 1640, additionally containing 10% calf serum, 100 U of penicillin/ml, 15 μg of streptomycin/ml, 5×10^−5 M 2-mercaptoethanol and 1 mM L-glutamine (GIBCO BRL, Karlsruhe, Germany), and stored at 37° C. in a moist atmosphere containing 5% CO2. […] These cells were then harvested on filter paper (Filtermat A; Wallac, Freiburg, Germany) using a cell harvester (Inotech, Wohlen, Switzerland) and the quantity of [^3H] thymidine taken up into the DNA of proliferating cells was determined using a scintillation counter (Wallac 1450, Micro-Trilux). The results were recorded as the ratios between the values (mean values, determined in triplicate) of stimulated and unstimulated samples (stimulation index).

[1] = system: mouse peritoneal macrophages; assay: Nitrogen monoxide release assay (macrophage activation test); type: cell-based, C3H/HeJ mice; settings: FIG. 1
Description: In principle, the activation of macrophages and monocytes can be measured by a large number of parameters, for example by means of the release of cytokines, chemokines or arachidonic acid metabolites in cultures of human monocytes or murine peritoneal macrophages. The test which is used here is based on the simultaneous stimulation of mouse peritoneal macrophages with interferon-γ and macrophage activator, e.g. BAP-Cys-PEG, so as to release nitrogen monoxide. (Reference: Muhlradt, P. F., and Frisch, M., 1994, “Purification and partial biochemical characterization of a Mycoplasma fermentans-derived substance that activates macrophages to release nitric oxide, tumor necrosis factor, and interleukin-6”, Infect. Immun. 62:3801-3807).
In brief, peritoneal macrophages from C3H/HeJ mice were used as the macrophage source. They were cultured in 96-well microtiter plates and stimulated simultaneously with rIFN-γ and a serial dilution of macrophage activator. Insofar as necessary, the macrophage activators were dissolved in 25 mM octylglucoside in the first dilution step and then diluted further with medium. After an incubating time of 45-48 hours, the nitrate was reduced with nitrate reductase and the starting substance nitrogen monoxide was determined, as the sum of nitrate and nitrite, using Griess' reagent. […]

[2] = system: diabetic mice (C57BKLS/Bom-db); assay: Wound healing in diabetic mice; type: in vivo; settings: 3×200 kU per animal on days 0, 2 and 5, in methylcellulose and 5% mouse serum; versus carrier control; FIG. 2
Description: As in the case of diabetic patients, wound healing is also disturbed in diabetic mice and proceeds more slowly than in wild-type mice. The diabetic mouse is therefore an established animal model for wound healing.
An area of approx. 4×4 cm in size was shaved on the backs of 20 diabetic mice ([…] C57BKLS/Bom-db) and this area was depilated with Veet two days later, after which the cream was carefully removed. After a further two days, the depilated backs of the mice were disinfected with Braunol. After anaesthesia had been initiated with isoflurane/air, an additional local anaesthesia was performed by means of the i.c. injection of 2% xylocaine directly into the site envisaged for the excision, and the skin was defatted with trichloroethylene. After that, scissors were used to cut out a circular skin wound of 1.3 cm in diameter in each of the mice. The wounds were closed with a transparent plaster (Hydrofilm, F. Hartmann) and dressing adhesive. An additional, larger plaster, having an aperture corresponding to the wound, making possible continued observation of the wound, was adhered on top of the first plaster.
3×200 kUnits of BPP-Cys-PEG, in methylcellulose and 5% mouse serum (as carrier), were administered, per animal, through the transparent plaster on days 0, 2 and 5.
Control mice were only given the carrier mixture. […]

β-gal-specific IgA = β-gal-specific IgA in lung and vaginal washings of intranasally immunized mice; type: in vivo, BALB/c (H-2d) mice; settings: intranasal immunization with β-gal plus adjuvant
Protocol: (§1) 6-8-week-old female BALB/c (H-2d) mice (Harlan Winkelmann GmbH, Borchen, Germany) were used for the experiments. Groups of in each case 5 mice were administered 50 μg of β-galactosidase (β-gal) (Boehringer, Mannheim, Germany), either on its own or together with 0.5 μg of synthetic R-MALP-2, S-MALP-2 or BPP-Cys-PEG, as adjuvant, by the nasal route (25 μl) on days 1, 14 and 21. Serum samples were withdrawn on day 31 and stored at −20° C. until the β-gal-specific antibodies were determined. Nunc-Immuno MaxiSorp test plates containing 96 wells (Nunc, Roskilde, Denmark) were coated with 100 μl of β-gal (Boehringer, Mannheim, Germany), containing 5 μg/ml in 0.05 mol carbonate buffer (pH 8.2), per well. Serial double dilutions of the sera or washings in PBS containing 1% BSA and 0.05% Tween 20 were added (100 μl/well) and the plates were incubated at 37° C. for 2 hours. […]
Vaginal and lung washings were obtained by rinsing the organs with […] PBS which contained 50 mM EDTA, 0.1% BSA and 10 mM PMSF. […] In order to investigate the capacity of R-MALP-2, S-MALP-2 and BPP-Cys-PEG for stimulating effective humoral immune responses, the serum titers of β-gal-specific antibodies were determined in the inoculated mice.

[3] = system: β-galactosidase-specific antibodies; assay: Serum β-gal-specific IgG (ELISA) after intranasal immunization with β-gal plus adjuvant; type: in vivo, BALB/c (H-2d) mice
Protocol: FIG. 3: Humoral responses which are stimulated after inoculating with MALP-2 derivatives and BPP-Cys-PEG, as mucosal adjuvants, at a dose of 0.05 μg per animal per immunization. The mice were immunized intranasally, on days 0, 7 and 14, with β-galactosidase (50 μg/dose) mixed with the above derivatives. On day 31 after the first immunization, serum samples were withdrawn and the concentrations of the β-galactosidase-specific antibodies were determined by means of ELISA. The results are depicted as end point titers.
as §1

Substance: bispalmitoyloxy-propylcysteine-PEG [BPP-Cys-PEG]
- β-gal-specific T cell proliferation response (stimulation index) (spleen cells): effective proliferation response; also recorded: strongest T cell proliferation response
- concentration achieving the same degree of macrophage activation, relative to TPP-Cys-PEG ([1]; comparison with TPP-Cys-PEG (PAM3-Cys-PEG)): approx. forty times lower
- potential for activating macrophages (nitrogen monoxide production), compared with PAM3-Cys-PEG ([1]; peritoneal macrophages co-stimulated with rIFN-γ, 45-48 hours): markedly higher potential for activating macrophages
- wound healing [2]: accelerated the wound healing significantly
- β-gal-specific IgA in lung washings (β-gal-specific IgA; FIG. 4): significant increase in antigen-specific IgA antibodies
- β-gal-specific IgA in vaginal washings (β-gal-specific IgA; FIG. 5): significant concentrations of β-gal-specific IgA
- antigen-specific (β-gal) serum IgG titers ([3]; intranasal, 50 μg β-gal with 0.5 μg adjuvant, serum on day 31, FIG. 3): rise more rapidly than those obtained using R-MALP-2
- effectiveness as a mucosal adjuvant compared with R-MALP-2 (overall conclusion) ([3]; summary of humoral and cellular responses, systemic and mucosal): at least as effective as, or even more effective than, R-MALP-2
